Source: patent publication US20220213052A1, “INHIBITORS OF RNA-BINDING PROTEINS, COMPOSITIONS THEREOF, AND THERAPEUTIC USES THEROF” (The University of North Carolina at Chapel Hill, priority 2019, published 2022)
Structures can show the parent of a compound that is named as a salt. Where two headings read alike, the source gives them in different places.

Columns and labels:
Musashi 2 (Msi2) = Musashi 2 (Msi2) (Homo sapiens, UniProt Q96DH6); test: Msi2 FP assay; type: binding
Description: (§1) With the FP assay of HuR-Msi1ARE binding, the inhibition of the HuR-Msi1ARE interaction by various compounds of the present technology was assessed. Similar FP assays for Musashi 2 (Msi2) and for RNA-binding protein Lin-28 homolog B (LIN28B) were also performed on various compounds of the present technology. The results of such assays for HuR are provided in Table 1 alongside the compound structures as well as ID numbers for ease of reference; the results of such assays for Msi1, Msi2, and LIN28B are provided in Table 2.

[1] = tested on: triple-negative breast cancer cell line MDA-MB-231; test: Cytotoxicity assay (WST-8), MDA-MB-231; type: cell-based; details: Homo sapiens, 96 h incubation
Description: The cytotoxicity of various compounds of the present technology in several cancer cell lines (pancreatic cancer cell line MIAPaCa-2, triple-negative breast cancer cell line MDA-MB-231, and colon cancer cell lines HCT116, HCT116 β/W, and RKO) was assessed by a cytotoxicity assay. Cells were seeded in 96-well culture plates (3,000-5,000 cells/well) and treated with titrated compounds in triplicate. After 96 h incubation, cell growth medium was removed and proliferation reagent WST-8 (Sigma) was added to each well and incubated at 37° C. for 1-3 h. Absorbance was then measured with a plate reader at 450 nm with correction at 650 nm. The results were expressed as the percentage of absorbance of treated wells versus that of vehicle control. IC50, the drug concentration causing 50% growth inhibition, was calculated via sigmoid curve fitting using GraphPad Prism 5.0. The results for those compounds tested against MIAPaCa-2 and MDA-MB-231 are provided in Table 1; the results for those compounds tested against colon cancer cell lines HCT116, HCT116 β/W, and RKO are provided in Table 3.

[2] = biological target: T1, RNA-binding protein Lin-28 homolog B (LIN28B) (Homo sapiens, UniProt Q6ZN17); test: LIN28B FP assay
T1 sequence (Q6ZN17 1-250): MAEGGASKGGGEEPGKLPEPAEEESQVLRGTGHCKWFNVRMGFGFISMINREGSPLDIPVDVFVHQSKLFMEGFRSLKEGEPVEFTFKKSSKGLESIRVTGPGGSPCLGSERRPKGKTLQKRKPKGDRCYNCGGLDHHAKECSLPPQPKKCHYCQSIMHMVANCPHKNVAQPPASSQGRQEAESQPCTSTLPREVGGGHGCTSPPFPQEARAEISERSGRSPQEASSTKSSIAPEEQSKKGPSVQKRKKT
Description: as §1

[3] = biological target: T2, full-length human HuR protein (Homo sapiens, UniProt Q15717); test: FP assay of HuR-Msi1 ARE binding inhibition; details: HuR-Msi1 ARE interaction; read-out: HuR Ki via FP assay
T2 construct: full-length human HuR protein was produced by the KU COBRE-PSF Protein Purification Group; made in house
T2 sequence (Q15717 whole entry): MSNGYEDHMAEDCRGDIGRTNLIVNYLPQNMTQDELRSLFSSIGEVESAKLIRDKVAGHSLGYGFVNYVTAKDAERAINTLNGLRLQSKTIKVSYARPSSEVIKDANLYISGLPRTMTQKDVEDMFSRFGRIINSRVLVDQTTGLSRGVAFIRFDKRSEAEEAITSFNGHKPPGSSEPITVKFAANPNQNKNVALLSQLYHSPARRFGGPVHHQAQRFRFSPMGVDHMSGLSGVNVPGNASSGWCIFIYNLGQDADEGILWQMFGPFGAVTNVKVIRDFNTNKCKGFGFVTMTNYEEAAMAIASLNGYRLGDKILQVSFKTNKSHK
Text: A fluorescence polarization (FP)-based binding assay was utilized to assess the inhibition of HuR protein interaction with the ARE site of Msi1 mRNA (“HuR-Msi1^ARE”) by compounds of interest. Briefly, full-length human HuR protein was produced by the KU COBRE-PSF Protein Purification Group and Bcl2, Msi1 and XIAP mRNA sequences (16 nt) were designed based on literature precedent^23,24,31,32. Fluorescein labeled RNAs were purchased from Dharmacon with the following sequences: Msi1 RNA: 5′-[…]-3′-fluorescein; Bcl-2 RNA: 5′-[…]-3′-fluorescein; XIAP RNA: 5′-[…] UGUC-3′-fluorescein, and a 16-nt degenerative RNA with 3′-fluorescein label was used as a negative control.
as §1

Msi1 = Msi1 (Homo sapiens, UniProt O43347); test: Msi1 FP assay; type: binding
Chain of Msi1 (O43347 whole entry, species assumed): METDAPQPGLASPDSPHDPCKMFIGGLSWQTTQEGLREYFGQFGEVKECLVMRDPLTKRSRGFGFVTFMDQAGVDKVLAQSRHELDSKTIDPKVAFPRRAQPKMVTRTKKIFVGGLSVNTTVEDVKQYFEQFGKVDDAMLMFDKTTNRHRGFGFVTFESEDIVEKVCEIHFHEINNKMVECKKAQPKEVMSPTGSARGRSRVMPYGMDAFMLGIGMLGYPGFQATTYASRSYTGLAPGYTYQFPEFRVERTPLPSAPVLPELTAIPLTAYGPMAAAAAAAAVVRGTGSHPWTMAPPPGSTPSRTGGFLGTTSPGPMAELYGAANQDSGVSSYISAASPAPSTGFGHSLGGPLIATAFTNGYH
Description: as §1

[4] = cell without (RRM1) mark, read-out: Msi2 (Ki)
[5] = cell marked (RRM1), read-out: Msi2 (Ki) (RRM1)

Chain of Musashi 2 (Msi2) (Q96DH6 whole entry, species assumed): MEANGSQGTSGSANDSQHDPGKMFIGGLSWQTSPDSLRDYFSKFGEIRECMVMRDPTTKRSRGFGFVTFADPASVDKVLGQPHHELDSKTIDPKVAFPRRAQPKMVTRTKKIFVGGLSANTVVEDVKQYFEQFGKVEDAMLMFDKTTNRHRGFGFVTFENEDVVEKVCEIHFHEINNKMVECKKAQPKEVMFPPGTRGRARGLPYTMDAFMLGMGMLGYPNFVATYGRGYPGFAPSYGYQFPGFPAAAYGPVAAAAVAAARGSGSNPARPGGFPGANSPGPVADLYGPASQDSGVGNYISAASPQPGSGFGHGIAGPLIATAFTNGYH

Row | Ki (Musashi 2 (Msi2); [4]) | Ki [2] | Ki [3] | Ki (Msi1) | Ki (Musashi 2 (Msi2); [5]) | Compound | IC50 [1]
1 | > 20 µM | > 20 µM | 0.19 µM | > 20 µM |  | CC(C)(C)c1ccc(C(=O)Nc2ccc3sc(/C=C/C(=O)NN)cc3c2)cc1 [KH-19E, (E)-4-(tert-butyl)-N-(2-(3-hydrazinyl-3-oxoprop-1-en-1-yl)benzo[b]thiophen-5-yl)benzamide] | 28.4 µM
2 | > 20 µM | > 20 µM | 5.8 µM | > 20 µM |  | O=C(O)CCc1cc2cc(NC(=O)c3ccc(S(F)(F)(F)(F)F)cc3)ccc2s1 [KH-34A, 3-(5-(4-(pentafluoro-λ^6-sulfanyl)benzamido)benzo[b]thiophen-2-yl)propanoic acid] | 48 µM
3 |  | > 20 µM | 3.35 µM |  | 4.8 µM | CC(C)(C)c1ccc(C(=O)Nc2ccc3[nH]c(/C=C/C(=O)O)cc3c2)cc1 [KH-48A, (E)-3-(5-(4-(tert-butyl)benzamido)-1H-indol-2-yl)acrylic acid] | > 100 µM
4 |  | 3 µM | 0.47 µM | 3.89 µM | 1.3 µM | CC(C)(C)c1cccc(C(=O)Nc2ccc3sc(/C=C/C(=O)NO)cc3c2)c1 [KH-31, (E)-3-(tert-Butyl)-N-(2-(3-(hydroxyamino)-3-oxoprop-1-en-1-yl)benzo[b]thiophen-5-yl)benzamide] | 9.74 µM
5 | > 20 µM | > 20 µM | 3.23 µM |  |  | O=C(Nc1ccc2sc(C(=O)NO)cc2c1)c1ccccn1 [KH-60, N-(2-(hydroxycarbamoyl)benzo[b]thiophen-5-yl)picolinamide] | 4.43 µM
6 | > 20 µM | > 20 µM | > 20 µM | > 20 µM |  | O=C(O)/C=C/c1cc2cc(NC(=O)c3ccc(F)cc3)ccc2s1 [KH-23A, (E)-3-(5-(4-Fluorobenzamido)benzo[b]thiophen-2-yl)acrylic acid] | 
7 |  | > 20 µM | 1.67 µM |  |  | CC(C)(C)c1ccc(C(=O)Nc2ccc3[nH]c(C(=O)NN)cc3c2)cc1 [KH-39E, 4-(tert-butyl)-N-(2-(hydrazinecarbonyl)-1H-indol-5-yl)benzamide] | 13.5 µM
8 | > 20 µM | > 20 µM | 1.06 µM | > 20 µM |  | CC(C)(C)c1ccc(C(=O)Nc2ccc3sc(CCC(=O)NN)cc3c2)cc1 [KH-22E, 4-(tert-butyl)-N-(2-(3-hydrazinyl-3-oxopropyl)benzo[b]thiophen-5-yl)benzamide] | 8.56 µM
9 |  | 8.79 µM | 0.34 µM |  | 3.91 µM | CC(C)(C)c1ccc(C(=O)Nc2ccc3[nH]c(/C=C/C(=O)NO)cc3c2)cc1 [KH-48, (E)-4-(tert-butyl)-N-(2-(3-(hydroxyamino)-3-oxoprop-1-en-1-yl)-1H-indol-5-yl)benzamide] | 2.24 µM
10 |  | > 20 µM | 1.6 µM | 4.36 µM | 1.68 µM | O=C(O)/C=C/c1cc2cc(NC(=O)c3ccc(C(F)(F)F)cc3)ccc2s1 [KH-32A, (E)-3-(5-(4-(Trifluoromethyl)benzamido)benzo[b]thiophen-2-yl)acrylic acid] | > 100 µM
11 |  | > 20 µM | 0.78 µM |  | 2.1 µM | CN(C)c1ccc(C(=O)Nc2ccc3[nH]c(C(=O)O)cc3c2)cc1 [KH-57A, 5-(4-(dimethylamino)benzamido)-1H-indole-2-carboxylic acid] | 100 µM
12 | > 20 µM | > 20 µM | 3.32 µM | > 20 µM |  | NNC(=O)CCc1cc2cc(NC(=O)c3ccc(C(F)(F)F)cc3)ccc2s1 [KH-29E] | 71.2 µM
13 | > 20 µM | > 20 µM | > 20 µM | > 20 µM |  | Cc1ccc(C(=O)Nc2ccc3sc(CCC(=O)O)cc3c2)cc1 [KH-27A, 3-(5-(4-Methylbenzamido)benzo[b]thiophen-2-yl)propanoic acid] | > 100 µM
14 | > 20 µM | > 20 µM | 4.44 µM |  |  | O=C(/C=C/c1cc2cc(NC(=O)c3ccccn3)ccc2s1)NO [KH-47, (E)-N-(2-(3-(hydroxyamino)-3-oxoprop-1-en-1-yl)benzo[b]thiophen-5-yl) picolinamide hydrochloride] | 3.11 µM
15 |  | > 20 µM | 1.81 µM |  | 6.8 µM | O=C(O)/C=C/c1cc2cc(NC(=O)c3ccccn3)ccc2s1 [KH-47A, (E)-3-(5-(picolinamido)benzo[b]thiophen-2-yl)acrylic acid hydrochloride] | 18.2 µM
16 |  | > 20 µM | 5.08 µM |  | 5.25 µM | CC(C)(C)c1ccc(C(=O)Nc2ccc3sc(C(=O)O)cc3c2)cc1 [KH-43A, 5-(4-(tert-butyl)benzamido)benzo[b]thiophene-2-carboxylic acid] | 90.5 µM
17 | > 20 µM | 5.84 µM | 1.29 µM |  |  | O=C(/C=C/c1cc2cc(NC(=O)C3CCCCC3)ccc2s1)NO [KH-46, (E)-N-(2-(3-(hydroxyamino)-3-oxoprop-1-en-1-yl)benzo[b]thiophen-5-yl) cyclohexanecarboxamide] | 3.5 µM
18 | > 20 µM | > 20 µM | > 20 µM | > 20 µM |  | O=C(O)CCc1cc2cc(NC(=O)c3ccc(F)cc3)ccc2s1 [KH-28A, 3-(5-(4-Fluorobenzamido)benzo[b]thiophen-2-yl)propanoic acid] | 
19 |  | > 20 µM | 2.37 µM |  | 6.6 µM | CN(C)c1ccc(C(=O)Nc2ccc3sc(C(=O)O)cc3c2)cc1 [KH-58A, 5-(4-(Dimethylamino)benzamido)benzo[b]thiophene-2-carboxylic acid] | > 100 µM
20 | > 20 µM | > 20 µM | > 20 µM |  |  | O=C(Nc1ccc2[nH]c(C(=O)O)cc2c1)c1ccccn1 [KH-56A, 5-(picolinamido)-1H-indole-2-carboxylic acid hydrochloride] | > 100 µM
21 | > 20 µM | > 20 µM | 3.31 µM |  |  | CN(C)c1ccc(C(=O)Nc2ccc3[nH]c(C(=O)NO)cc3c2)cc1 [KH-57, 5-(4-(dimethylamino)benzamido)-N-hydroxy-1H-indole-2-carboxamide] | 11.3 µM
22 | > 20 µM | > 20 µM | 4.27 µM |  |  | O=C(O)/C=C/c1cc2cc(NC(=O)C3CCCCC3)ccc2s1 [KH-46A, (E)-3-(5-(cyclohexanecarboxamido)benzo[b]thiophen-2-yl)acrylic acid] | > 100 µM
23 |  | > 20 µM | 1.14 µM |  | 4.6 µM | O=C(Nc1ccc2sc(C(=O)O)cc2c1)c1ccccn1 [KH-60A, 5-(Picolinamido)benzo[b]thiophene-2-carboxylic acid hydrochloride] | > 100 µM
24 |  | > 20 µM | 7.76 µM |  | 27.1 µM | CN(C)c1ccc(C(=O)Nc2ccc3[nH]c(/C=C/C(=O)O)cc3c2)cc1 [KH-52A, (E)-3-(5-(4-(dimethylamino)benzamido)-1H-indol-2-yl)acrylic acid] | > 100 µM
25 | > 20 µM | > 20 µM | 0.69 µM |  |  | CN(C)c1ccc(C(=O)Nc2ccc3[nH]c(/C=C/C(=O)NO)cc3c2)cc1 [KH-52, (E)-4-(dimethylamino)-N-(2-(3-(hydroxyamino)-3-oxoprop-1-en-1-yl)-1H-indol-5-yl)benzamide] | 8.91 µM
26 |  | 2.7 µM | 0.44 µM |  | 2.9 µM | CC(C)(C)c1ccc(C(=O)Nc2ccc3sc(C(=O)NO)cc3c2)cc1 [KH-43, 5-(4-(tert-butyl)benzamido)-N-hydroxybenzo[b]thiophene-2-carboxamide] | 3.71 µM
